One assay deals with citrated whole blood. The experiment in a line: RapidTEG (rTEG) test of blood spiked with anticoagulant. It is filed as biochemical, human. The settings on record: for TEG ACT parameter versus control group: all tested concentrations (except rivaroxaban 22 ng/mL). The text has this:
The TEG clotting assay was used to determine if low, normal, and high doses of dabigatran, rivaroxaban, and apixaban could be detected in blood spiked with these compounds. Three oral anticoagulants (OAC), namely dabigatran, rivaroxaban, and apixaban, were spiked into blood obtained from 14 healthy volunteer human donors. For each OAC tested, citrated blood from three donors was spiked with three different concentrations of the active drug (i.e., the compound). The spiked blood samples and control samples spiked with diluent were tested with the TEG® 5000 Thrombelastograph® Hemostasis Analyzer (Haemonetics Corporation, Braintree, Mass., USA) using the Kaolin and RapidTEG® reagents (Haemonetics). Each sample was run in triplicate. All samples were tested with and without ecarin (purchased from Enzyme Research Laboratories, South Bend, IN). This study was IRB approved and all donors were over 18 and signed informed consent forms.
The RapidTEG (rTEG) test incorporated both tissue factor and kaolin to generate the conventional kaolin parameters as well as the TEG-ACT parameter, which is measured in seconds. The TEG-ACT is equivalent to the Activated Clotting Time (see Chavez J. J. et al., Anesth. Analg. 99:1290-1294, 2004) and has a normal range of 86 to 118 seconds. A prolonged TEG-ACT time indicates slower clot formation. In addition, velocity curves derived from the above mentioned kaolin and rTEG tests were plotted using TEG software. These curves represent the speed of clot propagation (MRTG, Maximum Rate of Thrombus Generation; and TMRTG, Time to Maximum Rate of Thrombus Generation) (see FIG. 3B).
For the RapidTEG (rTEG) test, the reagent was reconstituted with 20 μL diluent water, and allowed to stand for 5 minutes per manufacturer instructions. Ten μL of this reconstituted reagent was added to the TEG cup with 20 μl 0.2M CaCl2 for recalcification.
340 μL of the citrated blood sample was added to the cup with these two reagents, and the contents of the cup were mixed 3 times by drawing the contents of the cup up into the pipette and redispensing it into the cup. The test was started immediately after mixing and allowed to run until the MA parameter had defined. The rTEG with ecarin test was performed as the rTEG test above, using 20 μL of an ecarin/CaCl2 solution (0.16M CaCl2; 19EU/mL ecarin).

The subject of assay [1] is blood from healthy volunteers. Briefly: Thromboelastography R time of spiked blood in the presence of the ecarin reagent. It is filed as biochemical, human. As to the method: Blood from healthy volunteers known not to be taking any oral anticoagulant and without any other significant health issues are analyzed using the FXa or the Ecarin reagent in a TEG® hemostasis analyzer.
The ecarin reagent is used to classify the type of anticoagulant. The R-time from the Ecarin assay is used to differentiate between the two available classes (Direct thrombin inhibitors and anti-Xa inhibitors). This ecarin reagent may be used in combination with the results from the FXa reagent to make a decision. A reference range will be generated from a sample healthy volunteer population (not on any drug) for this reagent.
The R-time generated from multiple donors was used to construct a reference range. Blood was spiked with either direct thrombin inhibitors or anti-Xa(s) at different concentrations and analyzed using the FXa reagent or the Ecarin reagent. The drug concentrations chosen represent the published therapeutic ranges for these two classes of drugs. This assay was repeated in multiple donors to account for possible donor variations.
The R time (in minutes) was compared to the R time obtained from donor blood with no oral anticoagulant (who is known not to be administered with an anticoagulant) treated with the ecarin reagent and measured using thromboelastography.
The R time (in minutes) was compared to the R time obtained from donor blood with no oral anticoagulant (i.e., taken from a patient who is known not to be administered with an anticoagulant) treated with the ecarin reagent and measured using thromboelastography.

The subject of assay [2] is blood from a single human volunteer. The experiment in a line: Detection time (R time with Factor Xa) in volunteer blood before and after oral anticoagulant. It is filed as in vivo. The settings on record: 2 hours 30 minutes after 20 mg oral. As to the method: (§1) Blood from a single human volunteer was analyzed using thromboelastography with Factor Xa and ecarin before and after the volunteer was orally administered an anticoagulant.
(§2) For these studies, the normal ranges for the particular reagent (i.e., Factor Xa or ecarin) were determined using multiple donors known not to be taking any anticoagulant.
(§3) The human volunteer was known not to be taking (i.e., was not being administered) an anticoagulant. In this example, blood was taken from the volunteer before the volunteer was administered any anticoagulant. This is the “before” blood component sample. The volunteer was orally administered 20 mg rivaroxaban, an anti-Factor Xa anticoagulant. Two hours and thirty minutes after oral administration of the rivaroxaban, blood was drawn again from the volunteer. This is the “after” blood component sample.
(§4) The “before” and “after” samples were analyzed using thromboelastography in the presence of Factor Xa or in the presence of ecarin. When the R time is determined in the presence of Factor Xa, that time is called the detection time. When the R time is determined in the presence of ecarin, that time is called the classification time.

For assay [3] the test system is unchanged. The experiment in a line: Classification time (R time with ecarin) in volunteer blood before and after oral anticoagulant. The settings on record: 2 hours 30 minutes after 20 mg oral. It is filed as in vivo. As to the method: as §1, §2, §3, §4
The subject of a further assay is porcine plasma. Briefly: TEG 6S DTI channel R-time, porcine experimental trauma model. It is filed as in vivo. The settings on record: pre and post trauma; baseline 3.4±0.6 min. As to the method: The TEG®6S system (Haemonetics Corp., Braintree, Mass.) is based on viscoelasticity measurements using resonance frequency and disposable multi-channel microfluidic cartridges. Blood and plasma from healthy volunteers were spiked with dabigatran in the therapeutic range (in increasing concentrations) and tested with an OAC cartridge with an ecarin based, direct thrombin inhibitor (DTI) channel. This channel was also evaluated with porcine plasma from an experimental trauma model (n=6) where dabigatran levels were measured with dilute TT (Hemoclot®). TEG 6s R-time (reaction time) was correlated to the drug levels.

Here are results for two compounds from patent US10954549B2, “Detection and classification of an anticoagulant using a clotting assay” (Haemonetics Corporation, priority 2014, dated 2021).

For the compound `O=C(NC[C@H]1CN(c2ccc(N3CCOCC3=O)cc2)C(=O)O1)c1ccc(Cl)s1` [rivaroxaban, Rivaroxaban], in the assay with citrated whole blood, the “K, α and MRTG parameters versus control or between studied concentrations” value is reported as “did not show any statistical difference”; the “TEG ACT parameter, distinguishing between concentrations” value was “good dose response curve”; the “TMRTG parameter sensitivity to presence of drug” value was “sensitive to the presence”; the “TEG ACT parameter versus control group” value is listed as “significantly different”. Further, in the assay with citrated whole blood (all studied concentrations), the “MA values versus control” value was “did not change”. Besides, the “ACT time versus non-spiked blood sample” value in the assay on citrated whole blood (medium and higher concentrations) is given as “significantly higher”. Besides, the “R time versus reference range of approximately 1 to 4.1 minutes” value in assay [1] (50-350 ng/ml, ecarin) was “within the reference range”. For the same compound, in assay [2], the “"after" detection time (R time, FXa reagent)” value is given as “approximately 4.4 minutes” and the “"after" detection time relative to the reference range R time of 1.5 minutes” value was 2.93 times. The “R of "after" blood versus Ecarin reference range (approximately 4.1 minutes upper boundary)” value in assay [3] was “within the Ecarin reference range”.

With dabigatran, in the assay on citrated whole blood, the “TEG ACT parameter, distinguishing between concentrations” value was “good dose response curve”; the “TMRTG parameter sensitivity to presence of drug” value is on record as “sensitive to the presence”; the “TEG ACT parameter versus control group” value is given as “significantly different”. The “K parameter versus control” value in the assay on citrated whole blood (200 ng/mL and 50 ng/mL) was “statistically different from control”. The “K parameter versus control” value in the assay on citrated whole blood (500 ng/mL) is “not for the concentration of 500 ng/mL”. For the same compound, the “α parameter versus control” value with citrated whole blood (500 ng/mL and 50 ng/mL) is recorded as “statistically different from control”. For the same compound, the “MA values versus control group” value with citrated whole blood (500 ng/mL, still within normal range) is recorded as “significantly different from the control group”. The MRTG parameter sensitivity result in the assay with citrated whole blood (500, 200, 50 ng/mL) is “sensitive to the two lowest concentrations”. In the assay with citrated whole blood (500 vs 200 ng/mL, 200 vs 50 ng/mL), the “TMRTG parameter between concentrations” value is recorded as “able to differentiate between concentrations”. For the same compound, in the assay on citrated whole blood (500 vs 200 ng/mL, 500 vs 50 ng/mL), the “K and α parameters, highest concentration versus other concentrations” value is “able to differentiate”. For the same compound, in the assay with citrated whole blood (all concentrations), the “ACT time versus non-spiked blood sample” value is reported as “significantly higher”. Besides, the “R time versus untreated R time of unspiked donor blood” value in assay [1] (50 ng/ml, donor 126, ecarin reagent) is given as “two times longer”. Further, the “R time relative to the reference range of 3.1 minutes” value in assay [1] (50 ng/ml, donors 117, 127, and 146, ecarin) is on record as “at least 1.25 times”. Further, the “R time relative to the collective reference range of 3.1 minutes” value in assay [1] (150 ng/ml, all four donors, ecarin) is listed as “at least 1.25 times”. The R-time following administration with porcine plasma was no less than 21 ± 5.9 min.
